# In PubChem BioAssay (NCI):
#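 Dose response: 5 concentrations. Exposure: 48 h. Format: 96-well plates. Endpoint: linear interpolation; highest concentration if not reached. The concentration for full growth arrest is given as TGI.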
# What was measured:
# Assay in all cases: growth of human tumour cells (NCI), 48 h
# HL-60(TB) leukemia = test system: HL-60(TB) leukemia
# HOP-92 NSCLC = test system: HOP-92 NSCLC
# M14 melanoma = test system: M14 melanoma
# MDA-MB-435 = test system: MDA-MB-435
# MDA-N = test system: MDA-N
# SF-268 CNS = test system: SF-268 CNS
# SNB-19 CNS = test system: SNB-19 CNS
# SR leukemia = test system: SR leukemia
# U251 CNS = test system: U251 CNS
# UO-31 renal = test system: UO-31 renal
Structure (SMILES),TGI (HL-60(TB) leukemia) [µM],TGI (HOP-92 NSCLC) [µM],TGI (M14 melanoma) [µM],TGI (MDA-MB-435) [µM],TGI (MDA-N) [µM],TGI (SF-268 CNS) [µM],TGI (SNB-19 CNS) [µM],TGI (SR leukemia) [µM],TGI (U251 CNS) [µM],TGI (UO-31 renal) [µM]
COC(=O)c1c(OC(C)=O)ccc2c1c1c(OC(C)=O)c3ccccc3c(OC(C)=O)c1n2Cc1cc(OC)cc(OC)c1,> 100,5.35,> 100,78.3,81.4,> 100,> 100,> 100,> 100,> 100
COCn1c(C)c(C)c2c(=O)oc(=O)[nH]c21,> 100,> 100,> 100,> 100,> 100,> 100,> 100,> 100,> 100,> 100
Nc1ccc2c(c1)C1Oc3ccccc3CC1CO2 (configuration not stated),> 100,> 100,> 100,> 100,> 100,> 100,–,> 100,> 100,> 100
Cc1cc(O)c(C(C)C)cc1NC(=O)Nc1cccc2ccccc12,> 100,40.8,40,31.1,27.6,40.9,30.2,> 100,31,42.9
C=CCNC1=C2C[C@@H](C)C[C@@H](OC)C(OC(=O)CCCN(C)C)[C@H](C)/C=C(\C)[C@@H](OC(N)=O)[C@H](OC)/C=C\C=C(/C)C(=O)NC(=CC1=O)C2=O (some centres not stated),20.2,34.9,20.7,26,19.8,27.6,28.9,8.97,26.6,26.6
Nn1c(Cc2ccc(Cl)cc2)n[nH]c1=O,> 100,> 100,> 100,> 100,> 100,> 100,> 100,> 100,> 100,> 100
CCNC(=S)N/N=C/c1cc(OC)ccc1O,> 100,> 100,> 100,> 100,> 100,> 100,> 100,> 100,> 100,> 100
CC(C)(C)c1cc(C(O)(C(=O)O)C(=O)O)cc(C(C)(C)C)c1O,> 100,> 100,> 100,> 100,> 100,> 100,> 100,> 100,> 100,> 100
NNC(=O)CC(=O)Nc1ccc(Cl)cc1,> 100,> 100,–,> 100,> 100,> 100,> 100,> 100,> 100,> 100
CC1(C)C2CCC1(CS(=O)(=O)Nc1ccccc1)C(=O)C2 (configuration not stated),> 100,> 100,> 100,> 100,> 100,> 100,> 100,> 100,> 100,> 100
Cc1c(-c2ccccc2)c(C#N)c2nnn(-c3ccccc3)c(=O)n12,> 100,> 100,> 100,> 100,> 100,> 100,> 100,> 100,> 100,> 100
COc1cc(C2c3cc4c(cc3C(O)C3CCC(=O)N23)OCO4)cc(OC)c1OC (configuration not stated),55.1,> 100,> 100,18,38.2,> 100,> 100,> 100,82.8,71.2
O=C(Nc1ccccc1)c1cc2c(cc1Cl)Sc1nccn1S2(=O)=O,56.1,18.5,> 58.2,42.2,> 100,> 89.8,> 100,> 73,> 71.7,> 100
Cc1cc2c(cc1-c1cc3c(cc1C)C(C(C)C)=C(O)C(=O)/C3=C\Nc1nc(-c3ccccc3)cs1)/C(=C/Nc1nc(-c3ccccc3)cs1)C(=O)C(O)=C2C(C)C,> 100,55.7,30.1,30.6,> 100,72,37.9,> 100,27.5,–
CCCC1NC(C#N)(C#N)C(CCC)NC1(C#N)C#N (configuration not stated),0.343,> 32.4,> 60.6,26.8,> 55,> 48.7,> 100,1.49,> 100,> 100
O=C1Cc2c(-c3ccc(Cl)cc3)cc(-c3ccccc3)nc2-c2ccccc2N1,> 100,14.6,> 100,> 57.1,55.8,48.9,7.31,> 100,17.8,14.8
